Reference: PubChem BioAssay (NCI)
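Cultured in 96-well plates, cells were exposed to test compound for 48 hours across five concentrations. TGI denotes the concentration required for complete inhibition of growth.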 Where a SMILES comes first, the peptide text is derived from it. [ ]: non-standard residue; d: D form. The star is where a group is joined. Iva = CC[C](C)(N)C(=O)O; Boc = CC(C)(C)OC(=O)*; X52 = C1CCC(=NO*)C1

Assays:
Test in all cases: inhibition of tumour cell growth, NCI panel, 48 h
A498 renal = system: A498 renal
BT-549 breast = system: BT-549 breast
CAKI-1 renal = system: CAKI-1 renal
CCRF-CEM leukemia = system: CCRF-CEM leukemia
COLO 205 colon = system: COLO 205 colon
DU-145 prostate = system: DU-145 prostate
HCC-2998 colon = system: HCC-2998 colon
HCT-116 colon = system: HCT-116 colon
HCT-15 colon = system: HCT-15 colon
HL-60(TB) leukemia = system: HL-60(TB) leukemia
HOP-62 NSCLC = system: HOP-62 NSCLC
HOP-92 NSCLC = system: HOP-92 NSCLC
HS 578T breast = system: HS 578T breast
IGROV1 ovarian = system: IGROV1 ovarian
K-562 leukemia = system: K-562 leukemia
KM12 colon = system: KM12 colon
M14 melanoma = system: M14 melanoma
MALME-3M melanoma = system: MALME-3M melanoma
MCF7 breast = system: MCF7 breast
MDA-MB-231 breast = system: MDA-MB-231 breast
MDA-MB-435 = system: MDA-MB-435
MDA-N = system: MDA-N
MOLT-4 leukemia = system: MOLT-4 leukemia
NCI-H226 lung = system: NCI-H226 lung
NCI-H23 lung = system: NCI-H23 lung
NCI-H460 lung = system: NCI-H460 lung
NCI-H522 lung = system: NCI-H522 lung
NCI/ADR-RES ovarian = system: NCI/ADR-RES ovarian
OVCAR-3 ovarian = system: OVCAR-3 ovarian
OVCAR-5 ovarian = system: OVCAR-5 ovarian
OVCAR-8 ovarian = system: OVCAR-8 ovarian
PC-3 prostate = system: PC-3 prostate
RPMI-8226 leukemia = system: RPMI-8226 leukemia
RXF 393 renal = system: RXF 393 renal
SF-295 CNS = system: SF-295 CNS
SK-MEL-2 melanoma = system: SK-MEL-2 melanoma
SK-MEL-28 melanoma = system: SK-MEL-28 melanoma
SK-MEL-5 melanoma = system: SK-MEL-5 melanoma
SK-OV-3 ovarian = system: SK-OV-3 ovarian
SN12C renal = system: SN12C renal
SNB-19 CNS = system: SNB-19 CNS
SNB-75 CNS = system: SNB-75 CNS
SR leukemia = system: SR leukemia
T-47D breast = system: T-47D breast
U251 CNS = system: U251 CNS
UACC-62 melanoma = system: UACC-62 melanoma
UO-31 renal = system: UO-31 renal
786-0 renal = system: 786-0 renal
A549 NSCLC = system: A549 NSCLC
ACHN renal = system: ACHN renal
EKVX NSCLC = system: EKVX NSCLC
HT29 colon = system: HT29 colon
LOX IMVI melanoma = system: LOX IMVI melanoma
OVCAR-4 ovarian = system: OVCAR-4 ovarian
SF-268 CNS = system: SF-268 CNS
SW-620 colon = system: SW-620 colon
TK-10 renal = system: TK-10 renal
UACC-257 melanoma = system: UACC-257 melanoma

## CCC(C)(NC(=O)C(C)NC(=O)OC(C)(C)C)C(=O)NC(C)C(=O)NC(C)(CC)C(=O)ON=C1CCCC1 (stereo not given) (Boc-A[Iva]A[Iva]-X52; configuration not given here)
A498 renal
  TGI: > 100 µM
BT-549 breast
  TGI: > 100 µM
CAKI-1 renal
  TGI: > 100 µM
CCRF-CEM leukemia
  TGI: > 100 µM
COLO 205 colon
  TGI: > 100 µM
DU-145 prostate
  TGI: > 100 µM
HCC-2998 colon
  TGI: > 100 µM
HCT-116 colon
  TGI: > 100 µM
HCT-15 colon
  TGI: > 100 µM
HL-60(TB) leukemia
  TGI: > 100 µM
HOP-62 NSCLC
  TGI: > 100 µM
HOP-92 NSCLC
  TGI: > 100 µM
HS 578T breast
  TGI: > 100 µM
IGROV1 ovarian
  TGI: > 100 µM
K-562 leukemia
  TGI: > 100 µM
KM12 colon
  TGI: > 100 µM
M14 melanoma
  TGI: > 100 µM
MALME-3M melanoma
  TGI: > 100 µM
MCF7 breast
  TGI: > 100 µM
MDA-MB-231 breast
  TGI: > 100 µM
MDA-MB-435
  TGI: > 100 µM
MDA-N
  TGI: > 100 µM
MOLT-4 leukemia
  TGI: > 100 µM
NCI-H226 lung
  TGI: > 100 µM
NCI-H23 lung
  TGI: > 100 µM
NCI-H460 lung
  TGI: > 100 µM
NCI-H522 lung
  TGI: > 100 µM
NCI/ADR-RES ovarian
  TGI: > 100 µM
OVCAR-3 ovarian
  TGI: > 100 µM
OVCAR-5 ovarian
  TGI: > 100 µM
OVCAR-8 ovarian
  TGI: > 100 µM
PC-3 prostate
  TGI: > 100 µM
RPMI-8226 leukemia
  TGI: > 100 µM
RXF 393 renal
  TGI: > 100 µM
SF-295 CNS
  TGI: > 100 µM
SK-MEL-2 melanoma
  TGI: > 100 µM
SK-MEL-28 melanoma
  TGI: > 100 µM
SK-MEL-5 melanoma
  TGI: > 100 µM
SK-OV-3 ovarian
  TGI: > 100 µM
SN12C renal
  TGI: > 100 µM
SNB-19 CNS
  TGI: > 100 µM
SNB-75 CNS
  TGI: > 100 µM
SR leukemia
  TGI: > 100 µM
T-47D breast
  TGI: > 100 µM
U251 CNS
  TGI: > 100 µM
UACC-62 melanoma
  TGI: > 100 µM
UO-31 renal
  TGI: > 100 µM

## Cc1c(S(=O)(=O)O)ccc(N=Nc2c(O)c(C(=O)O)cc3ccccc23)c1Cl
786-0 renal
  TGI: > 100 µM
A498 renal
  TGI: > 100 µM
A549 NSCLC
  TGI: > 100 µM
ACHN renal
  TGI: > 100 µM
BT-549 breast
  TGI: > 100 µM
CAKI-1 renal
  TGI: > 100 µM
CCRF-CEM leukemia
  TGI: > 100 µM
COLO 205 colon
  TGI: > 100 µM
DU-145 prostate
  TGI: > 100 µM
EKVX NSCLC
  TGI: > 100 µM
HCC-2998 colon
  TGI: > 100 µM
HCT-116 colon
  TGI: > 100 µM
HCT-15 colon
  TGI: > 100 µM
HL-60(TB) leukemia
  TGI: > 100 µM
HOP-62 NSCLC
  TGI: > 100 µM
HOP-92 NSCLC
  TGI: > 100 µM
HS 578T breast
  TGI: > 100 µM
HT29 colon
  TGI: > 100 µM
IGROV1 ovarian
  TGI: > 100 µM
K-562 leukemia
  TGI: > 100 µM
KM12 colon
  TGI: > 100 µM
LOX IMVI melanoma
  TGI: > 100 µM
M14 melanoma
  TGI: > 100 µM
MALME-3M melanoma
  TGI: > 100 µM
MCF7 breast
  TGI: > 100 µM
MDA-MB-231 breast
  TGI: > 100 µM
MDA-MB-435
  TGI: > 100 µM
MDA-N
  TGI: > 100 µM
MOLT-4 leukemia
  TGI: > 100 µM
NCI-H226 lung
  TGI: > 100 µM
NCI-H23 lung
  TGI: > 100 µM
NCI-H460 lung
  TGI: > 100 µM
NCI-H522 lung
  TGI: > 100 µM
NCI/ADR-RES ovarian
  TGI: > 100 µM
OVCAR-3 ovarian
  TGI: > 100 µM
OVCAR-4 ovarian
  TGI: > 100 µM
OVCAR-5 ovarian
  TGI: > 100 µM
OVCAR-8 ovarian
  TGI: > 100 µM
PC-3 prostate
  TGI: > 100 µM
RPMI-8226 leukemia
  TGI: > 100 µM
RXF 393 renal
  TGI: > 100 µM
SF-268 CNS
  TGI: > 100 µM
SF-295 CNS
  TGI: > 100 µM
SK-MEL-2 melanoma
  TGI: > 100 µM
SK-MEL-28 melanoma
  TGI: > 100 µM
SK-MEL-5 melanoma
  TGI: > 100 µM
SK-OV-3 ovarian
  TGI: > 100 µM
SN12C renal
  TGI: > 100 µM
SNB-19 CNS
  TGI: > 100 µM
SNB-75 CNS
  TGI: > 100 µM
SR leukemia
  TGI: > 90.2 µM
SW-620 colon
  TGI: > 100 µM
T-47D breast
  TGI: > 100 µM
TK-10 renal
  TGI: > 100 µM
U251 CNS
  TGI: > 100 µM
UACC-257 melanoma
  TGI: > 100 µM
UACC-62 melanoma
  TGI: > 100 µM
UO-31 renal
  TGI: > 100 µM
